Reference: publication PMC9424235, “Small molecule-mediated allosteric activation of the base excision repair enzyme 8-oxoguanine DNA glycosylase and its impact on mitochondrial function” (Scientific Reports, 2022)
Values joined by “and” are separate entries in the source; they are usually repeats but may differ in a detail not shown here. Identical values can stand only once.

Legend:
OGG1 = system: OGG1; parameters: method as in PMID 12592398; details: cited from earlier work
human OGG1 = human OGG1 (Homo sapiens, UniProt O15527); test: Fluorescent steady-state kinetic assay of OGG1 activation (initial rates; screening concentration response)
Chain of human OGG1 (O15527 12-345): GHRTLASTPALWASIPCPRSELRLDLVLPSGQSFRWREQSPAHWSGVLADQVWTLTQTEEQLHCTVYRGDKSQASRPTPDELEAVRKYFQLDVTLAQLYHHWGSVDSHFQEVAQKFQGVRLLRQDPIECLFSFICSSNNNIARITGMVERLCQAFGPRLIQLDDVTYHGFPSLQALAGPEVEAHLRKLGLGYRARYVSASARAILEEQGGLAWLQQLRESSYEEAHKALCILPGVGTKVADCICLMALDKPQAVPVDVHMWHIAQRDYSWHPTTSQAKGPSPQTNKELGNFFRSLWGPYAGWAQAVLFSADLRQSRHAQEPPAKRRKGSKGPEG

A549 cells [1] = test: ROS production with CM-H2DCFDA (DCF) imaging; format: cell-based, human; details: for EC50: Homo sapiens
A549 cells [2] = test: Mitochondrial ROS with MitoSOX; format: cell-based, human
A549 cells [3] = test: Nuclear DNA damage by γ-H2AX staining; format: cell-based, human
A549 cells [4] = test: Mitochondrial membrane integrity (MitoTracker orange texture analysis); format: cell-based, human; details: 24 h
A549 cells [5] = test: mtDNA damage by long/short chain PCR; format: cell-based, human; details: PQ 0.3–3 mM
A549 cells [6] = test: Measurement of energy metabolites (ATP, ADP); format: cell-based, human
A549 cells [7] = test: TOM20 immunofluorescence; format: cell-based, human; details: 0.3 mM PQ, 48 h
A549 cells [8] = test: DRP1 content by quantitative imaging; format: cell-based, human; details: 0.6 mM PQ, 48 h
A549 cells [9] = test: DNA ligase III (LIG3) protein content by imaging; format: cell-based, human; details: 48 h of PQ at either 0.6 or 1 mM
A549 cells [10] = test: OGG1 content by imaging; format: cell-based, human; details: 0.6 mM PQ, N = 1 in triplicate
[11] = initial rate analysis, random mechanism

Question: What does the source list for `Nc1nc2nc(N)[nH]c2c(=O)[nH]1` [Compound 8-aminoGua, 8-aminoguanine]?
Answer: acceleration / activation level of AP lyase activity (OGG1): > 35 fold; substrate turnover (OGG1): 72%

Question: Which “β value as percent of catalytic activity of OGG1 in the presence of 8-bromoGua” value (human OGG1) does the source give for `Nc1nc2cc[nH]c2c(=O)[nH]1` [Compound 9-deazaGua, 9-deazaguanine] here?
Answer: The value was 50%.

Question: What about the “OGG1 initial rate relative to that in the presence of 200 μM 8-bromoGua” value (human OGG1; 200 μM activator, substrate 80 nM) of the same compound?
Answer: The value was ~ 25%.

Question: What about the Km (human OGG1; initial rate analysis with activator and Substrate A varied, OGG1 10 nM) of the same compound?
Answer: The Km was 0.015 ± 0.003 µM.

Question: What about the kcat (human OGG1; initial rate analysis with activator and Substrate A varied, OGG1 10 nM, random mechanism fit) of the same compound?
Answer: The kcat was 0.006 ± 0.001 s⁻¹ and 0.006 ± 1 s⁻¹.

Question: And the “α (coefficient of interaction between activator and substrate)” value (human OGG1; [11])?
Answer: The value was 1.3 ± 0.4.

Question: What about the “β (factor of kcat activation)” value (human OGG1; [11]) of the same compound?
Answer: The value was 18 ± 3.

Question: Which “maximum ROS (DCF) over baseline” value (A549 cells [1]; 0.6 mM, 48 h) does the source give for `C[n+]1ccc(-c2cc[n+](C)cc2)cc1.[Cl-].[Cl-]` [Paraquat, N, N′-dimethyl-4,4′-bipyridinium dichloride] here?
Answer: The value was 30 fold.

Question: What about the “maximum ROS (DCF) over baseline” value (A549 cells [1]; 3 mM, 24 h) of the same compound?
Answer: Its value is 30 fold.

Question: And the EC50 (A549 cells [1]; A549, 24 h)?
Answer: Its EC50 is 1600 µM.

Question: What about the EC50 (A549 cells [1]; A549, 48 h) of the same compound?
Answer: Its EC50 is 340 µM.

Question: And the “maximal mitochondrial ROS signal intensity (MitoSOX)” value (A549 cells [2]; 3 mM)?
Answer: The value was 1.75 fold.

Question: And the EC50 (A549 cells [2]; Homo sapiens, A549, 24 h of exposure)?
Answer: Its EC50 is 280 µM.

Question: What about the “rise in γH2AX (nuclear DNA damage)” value (A549 cells [3]) of the same compound?
Answer: The value was 2 fold.

Question: What about the “concentration giving maximum effect on mitochondrial membrane integrity” value (A549 cells [4]) of the same compound?
Answer: Its value is 3000 µM.

Question: What about the “concentration giving maximal mtDNA damage” value (A549 cells [5]) of the same compound?
Answer: Its value is 600 µM.

Question: What about the ATP levels (A549 cells [6]; 24 h with PQ, concentrations not given at the place, listed as PQ) of the same compound?
Answer: The ATP levels was 3.13 ± 0.14 μmol/gm protein and 2.49 ± 0.67 μmol/gm protein and 1.99 ± 0.45 μmol/gm protein.

Question: What about the ADP levels (A549 cells [6]; PQ 3 mM, 48 h, time-course experiment) of the same compound?
Answer: Its ADP levels is 68.69 ± 1.47 μmol/gm protein.

Question: And the “ATP Average” value (A549 cells [6]; paraquat 0.3 mM alone, 48 h)?
Answer: The value was 2.56 µmols/g protein and 2.83 µmols/g protein and 1.89 µmols/g protein.

Question: What about the “ATP Average” value (A549 cells [6]; paraquat 0.6 mM alone, 48 h) of the same compound?
Answer: Its value is 1.43 µmols/g protein and 1.67 µmols/g protein and 1.19 µmols/g protein.

Question: What about the “ATP Average” value (A549 cells [6]; paraquat 1 mM alone, 48 h) of the same compound?
Answer: Its value is 1.47 µmols/g protein and 0.92 µmols/g protein and 1.02 µmols/g protein.

Question: What about the “ADP Average” value (A549 cells [6]; paraquat 3 mM alone, 48 h) of the same compound?
Answer: Its value is 40.48 µmols/g protein and 41.33 µmols/g protein and 53.45 µmols/g protein.

Question: What about the “ATP Average” value (A549 cells [6]; paraquat 3 mM alone, 48 h) of the same compound?
Answer: Its value is 0.96 µmols/g protein and 0.61 µmols/g protein and 0.63 µmols/g protein.

Question: And the “ATP Average” value (A549 cells [6]; paraquat 3 mM alone, 48 h, listed as PQ)?
Answer: Its value is 0.63 ± 0.05 µmols/g protein and 0.96 ± 0.10 µmols/g protein and 0.61 ± 0.09 µmols/g protein.

Question: And the “TOM20 immunofluorescence increase above baseline” value (A549 cells [7])?
Answer: Its value is ~25%.

Question: What about the “decline of DRP1 content compared to control” value (A549 cells [8]) of the same compound?
Answer: The value was “about 24 ± 0.02%”.

Question: And the “decline of LIG3 levels” value (A549 cells [9])?
Answer: Its value is “about 50%”.

Question: And the “increase of OGG1 content above baseline” value (A549 cells [10])?
Answer: The value was 88.3%.
